# pEC50: −log10 of the molar value.
# Tested on: HCV 1b genotype replicon
# Test: HCV replicon assay (qRT-PCR or luciferase), genotype 1b
# Type: cell-based
# Conditions: Hepatitis C virus; HCV 1b replicon cell lines (SGR 11-7 or Huh-luc/neo-ET); qRT-PCR or luciferase readout; two labels in one cell = mixture of the two compounds tested; read-out: Genotype-1b replicon EC50 Range
# Excerpt: HCV replicon cell lines (kindly provided by R. Bartenschlager) isolated from colonies as described by Lohman et. al. (Lohman et al. (1999) Science 285: 110-113, expressly incorporated by reference in its entirety) and used for all experiments. The HCV replicon has the nucleic acid sequence set forth in EMBL Accession No.: AJ242651, the coding sequence of which is from nucleotides 1801 to 8406.
# The coding sequence of the published HCV replicon was synthesized and subsequently assembled in a modified plasmid pBR322 (Promega, Madison, Wis.) using standard molecular biology techniques. One replicon cell line (“SGR 11-7”) stably expresses HCV replicon RNA which consists of (i) the HCV 5′UTR fused to the first 12 amino acids of the capsid protein, (ii) the neomycin phosphotransferase gene (neo), (iii) the IRES from encephalomyocarditis virus (EMCV), and (iv) HCV NS2 to NS5B genes and the HCV 3′UTR. Another replicon cell line (“Huh-luc/neo-ET”) described by Vrolijk et. al. (Vrolijk et. al. (2003) Journal of Virological Methods 110:201-209, expressly incorporated by reference in its entirety) stably expresses HCV replicon RNA which consists of (i) the HCV 5′UTR fused to the first 12 amino acids of the capsid protein, (ii) the firefly luciferase reporter gene, (iii) the ubiquitin gene, (iv) the neomycin phosphotransferase gene (neo), (v) the IRES from encephalomyocarditis virus (EMCV), and (vi) HCV NS3 to NS5B genes that harbor cell culture adaptive mutations (E1202G, T1280I, K1846T) and the HCV 3′UTR.
# These cell lines were maintained at 37° C., 5% CO2, 100% relative humidity in DMEM (Cat#11965-084, Invitrogen), with 10% fetal calf serum (“FCS”, Invitrogen), 1% non-essential amino acids (Invitrogen), 1% of Glutamax (Invitrogen), 1% of 100× penicillin/streptomycin (Cat#15140-122, Invitrogen) and Geneticin (Cat#10131-027, Invitrogen) at 0.75 mg/ml or 0.5 mg/ml for 11-7 and Huh-luc/neo-ET cells, respectively.
# EC50 values of single agent compounds and combinations were determined by HCV RNA detection using quantitative RT-PCR, according to the manufacturer's instructions, with a TAQMAN® One-Step RT-PCR Master Mix Reagents Kit (Cat# AB 4309169, Applied Biosystems) on an ABI Model 7500 thermocycler. The TaqMan primers used for detecting and quantifying HCV RNA were obtained from Integrated DNA Technologies. HCV RNA was normalized to GAPDH RNA levels in drug-treated cells, which was detected and quantified using the Human GAPDH Endogenous Control Mix (Applied Biosystems, AB 4310884E). Total cellular RNA was purified from 96-well plates using the RNAqueous 96 kit (Ambion, Cat# AM1812). Chemical agent cytotoxicity was evaluated using an MTS assay according to the manufacturer's directions (Promega).
# Since clinical drug resistance often develops in viral infections following single agent therapies, there is a need to assess the additive, antagonistic, or synergistic properties of combination therapies. We use the HCV replicon system to assess the potential use of the compound of the present invention or in combination therapies with Interferon alpha, cyclosporine analogs and inhibitors targeting other HCV proteins. The acute effects of a single or combinations of drugs are studied in the “Huh-luc/neo-ET” replicon with each chemical agent titrated in an X or Y direction in a 6 point two-fold dilution curve centered around the EC50 of each drug. Briefly, replicon cells are seeded at 7,000 cells per well in 90 ul DMEM (without phenol red, Invitrogen Cat.#31053-036) per well with 10% FCS, 1% non-essential amino acids, 1% of Glutamax and 1% of 100× penicillin/streptomycin and incubated overnight at 37° C., 5% CO2, 100% relative humidity. […]
row,SMILES,pEC50
1,COC(=O)N[C@H](C(=O)N[C@H]1CCC[C@@H]1C(=O)Nc1ccc(-c2ccc(-c3c[nH]c([C@@H]4CCCN4C(=O)[C@@H](NC(=O)OC)C(C)C)n3)cc2)cc1)C(C)C (racemic) [349a and 349b],8.00 to 9.00
2,COC(=O)N[C@H](C(=O)N[C@@H]1CCC[C@H]1NC(=O)c1ccc(-c2ccc(-c3c[nH]c(C4CCCN4C(=O)[C@@H](NC(=O)OC)C(C)C)n3)cc2)cc1)C(C)C (mixture of isomers) [367a and 367b],> 9.00
3,COC(=O)N[C@H](C(=O)N[C@@H]1CCC[C@H]1NC(=O)c1ccc(-c2ccc(-c3ccc4[nH]c([C@@H]5CCCN5C(=O)[C@@H](NC(=O)OC)C(C)C)nc4c3)cc2)cc1)C(C)C (racemic) [371a and 371b],> 9.00
4,COC(=O)N[C@H](C(=O)O[C@@H]1CCC[C@H]1NC(=O)c1ccc(-c2ccc(-c3c[nH]c([C@@H]4CCCN4C(=O)[C@@H](NC(=O)OC)C(C)C)n3)cc2)cc1)C(C)C (racemic) [377a and 377b],> 9.00
5,COC(=O)N[C@H](C(=O)N1CCC[C@@H](C(=O)Nc2ccc(-c3ccc(-c4cnc([C@@H]5CCCN5C(=O)[C@@H](NC(=O)OC)C(C)C)[nH]4)cc3)cc2)C1)C(C)C (racemic) [382a and 382b],> 9.00
6,COC(=O)N[C@H](C(=O)N1CC[C@H](C(=O)Nc2ccc(-c3ccc(-c4cnc([C@@H]5CCCN5C(=O)[C@@H](NC(=O)OC)C(C)C)[nH]4)cc3)cc2)C1)C(C)C [Example 83],8.00 to 9.00
7,COC(=O)N[C@H](C(=O)N1CCC[C@H]1CNC(=O)c1ccc(-c2ccc(-c3cnc([C@@H]4CCCN4C(=O)[C@@H](NC(=O)OC)C(C)C)[nH]3)cc2)cc1)C(C)C [Example 257],> 9.00
8,COC(=O)N[C@H](C(=O)N1CC[C@H](C(=O)Nc2ccc3cc(-c4ccc5[nH]c([C@@H]6CCCN6C(=O)[C@@H](NC(=O)OC)C(C)C)nc5c4)ccc3c2)C1)C(C)C [Example 327],< 8.00
9,COC(=O)N[C@H](C(=O)N1CC[C@@H](NC(=O)c2ccc(-c3ccc(-c4c[nH]c([C@@H]5CCCN5C(=O)[C@@H](NC(=O)OC)C(C)C)n4)cc3)cc2)C1)C(C)C [Example 352],8.00 to 9.00
10,COC(=O)N[C@H](C(=O)N1CCC(C(=O)Nc2ccc(-c3ccc(-c4c[nH]c([C@@H]5CCCN5C(=O)[C@@H](NC(=O)OC)C(C)C)n4)cc3)cc2)C1)C(C)C (stereo partly shown) [Example 355],8.00 to 9.00
11,COC(=O)N[C@H](C(=O)N1CCC[C@H]1CNC(=O)c1cccc(-c2ccc3cc(-c4c[nH]c([C@@H]5CCCN5C(=O)[C@@H](NC(=O)OC)C(C)C)n4)ccc3c2)c1)C(C)C [Example 361],8.00 to 9.00
12,COC(=O)N[C@H](C(=O)N1CCC(C(=O)Nc2ccc(-c3ccc4[nH]c([C@@H]5CCCN5C(=O)[C@@H](NC(=O)OC)C(C)C)nc4c3)cc2)C1)C(C)C (stereo partly shown) [Example 363],< 8.00
13,COC(=O)N[C@H](C(=O)N1CC[C@H](C(=O)Nc2ccc3cc(-c4ccc(-c5c[nH]c([C@@H]6CCCN6C(=O)[C@@H](NC(=O)OC)C(C)C)n5)cc4)ccc3c2)C1)C(C)C [Example 365],8.00 to 9.00
14,COC(=O)N[C@H](C(=O)N[C@@H]1CCC[C@H]1NC(=O)c1ccc(-c2ccc(-c3c[nH]c([C@@H]4CCCN4C(=O)[C@@H](NC(=O)OC)C(C)C)n3)cc2)cc1)C(C)C [Example 369],< 8.00
15,COC(=O)N[C@H](C(=O)N1CC[C@H](NC(=O)c2ccc(-c3ccc(-c4c[nH]c([C@@H]5CCCN5C(=O)[C@@H](NC(=O)OC)C(C)C)n4)cc3)cc2)C1)C(C)C [Example 372],8.00 to 9.00
16,COC(=O)N[C@H](C(=O)N1CC[C@@H](C(=O)Nc2ccc(-c3ccc(-c4c[nH]c([C@@H]5CCCN5C(=O)[C@@H](NC(=O)OC)C(C)C)n4)cc3)cc2)C1)C(C)C [Example 374],> 9.00
17,COC(=O)N[C@H](C(=O)N1CC[C@H](C(=O)Nc2ccc(-c3ccc(-c4c[nH]c([C@@H]5CCCN5C(=O)[C@@H](NC(=O)OC)C(C)C)n4)cc3)cn2)C1)C(C)C [Example 379],> 9.00
18,COC(=O)N[C@H](C(=O)N1CCC[C@@H]1CNC(=O)c1ccc(-c2ccc(-c3cnc([C@@H]4CCCN4C(=O)[C@@H](NC(=O)OC)C(C)C)[nH]3)cc2)cc1)C(C)C [Example 380],8.00 to 9.00
19,COC(=O)N[C@H](C(=O)NC[C@H]1CCCN1C(=O)c1ccc(-c2ccc(-c3cnc([C@@H]4CCCN4C(=O)[C@@H](NC(=O)OC)C(C)C)[nH]3)cc2)cc1)C(C)C [Example 381],< 8.00

# — patent publication US8822700B2, “Hepatitis C virus inhibitors” (Enanta Pharmaceuticals, Inc., priority 2009, dated 2014)
